The test system of this test is KRAS patient-derived spheroids with HUVEC/MSC, viability. As to the kind of experiment: Anticancer human tumor 323965-272-R-J2-PDC patient-derived pancreatic carcinoma cell line growth inhibition [KRAS2]. The following applies: for viability, T/C: stronger effect = lower value. The text has this: Multicellular complex tumor spheroid response to RAS pathway inhibitors in combination with a targeted agents in patient-derived cell lines with oncogenic KRAS variants from multiple cancer types
A high-throughput screen of multi-cell type tumor spheroids was designed to identify active combinations of targeted small molecules and KRAS pathway inhibitors. Complex spheroids include a stromal component modeled by human endothelial cells (HUVEC) and fibroblasts modeled by human mesenchymal stem cells (MSCs). The concentration ranges selected for each drug and investigational agent were based upon clinically achievable concentrations if the clinical Cmax of the agent was known.
Compounds. The drugs and investigational agents: BI-3406 (NSC825286), BAY-293 (NSC824723), batoprotafib (TNO155; NSC825523), sotorasib (AMG 510; NSC818433), MRTX1257 (NSC819558), elimusertib (BAY 1895344; NSC800525), molibresib (GSK525762; NSC774829), temuterkib (LY3214996; NSC803410), venetoclax (NSC766270), alisertib (NSC759677), olaparib (NSC753686), talazoparib (NSC767125), erdafitinib (NSC781556), ipatasertib (NSC767898), cabozantinib (NSC761068), nintedanib (NSC756659), abemaciclib (NSC768073), docetaxel (NSC628503), trametinib (NSC758246), and sapanisertib (NSC764658) were obtained from the National Cancer Institute (NCI) Developmental Therapeutics Program Chemical Repository. The FDA-approved anticancer drug set is available from the Developmental Therapeutics Program. […] The stock solutions were prepared in dimethyl sulfoxide (DMSO, Sigma-Aldrich, St. Louis, MO, cat. D2650) at 800-fold the tested concentration and stored at -70 degrees C prior to their use. All drugs and investigational agents were tested over a range starting from a high concentration at or near the clinical Cmax and decreasing in half-log increments. If the clinical Cmax for an agent had not been determined, the highest concentration tested was 10 microM.
Cell Culture. All cells were maintained in an incubator at 37 degrees C and 5% CO2 with 95% humidity. The PDC lines were cultured according to standard operating procedures established by the NCI PDMR (https://pdmr.cancer.gov/sops/default.htm). Briefly, all PDCs were thawed and cultured in Matrigel-coated flasks prepared with a working solution of 1X Ham's F-12 nutrient mix, without supplementation (Invitrogen, Waltham, MA, cat. 11765054), 100 U/mL penicillin-streptomycin (Invitrogen, cat. 15140122), and 2.5% Matrigel (Corning Inc., Corning, NY, cat. 354248) for the first three passages. All PDCs were cultured in complete DMEM/F-12 media containing advanced DMEM/F-12 (Invitrogen, cat. 12634028), 4.9% defined fetal bovine serum, heat inactivated (HyClone Laboratories Inc., Logan, UT, cat. SH30070.03HI), 389 ng/mL hydrocortisone (Sigma-Aldrich, cat. H4001), 9.7 ng/mL human EGF recombinant protein (Invitrogen, cat. PHG0313), 23.4 microg/mL adenine (Sigma-Aldrich, cat. A2786), 97.3 U/mL penicillin-streptomycin (Invitrogen, cat. 15140122), 1.9 mM L-glutamine (Invitrogen, cat. 25030081), and 9.7 microM Y-27632 dihydrochloride (Tocris Bioscience, Bristol, United Kingdom, cat. 1254). The PDCs were cultured in complete DMEM/F12 media without 9.7 microM Y-27632 dihydrochloride for at least two passages prior to the screen. The established cell line HOP-62 was cultured in RPMI 1640 medium, HEPES (Invitrogen, cat. 22400105) with 10% defined fetal bovine serum (HyClone Laboratories Inc., cat. SH30070.03) and 2 mM L-glutamine (Invitrogen, cat. 25030081). The pooled donor HUVEC were cultured in endothelial cell growth medium 2 (PromoCell, Heidelberg, Germany, cat. C-22011) and the hMSC were cultured in mesenchymal stem cell growth medium 2 (PromoCell, cat. C-28009). For all experiments, HUVEC and hMSC were used at passages </=5, while the malignant cell lines were used at passages </=15. […]

Several values for one entry are separate records, joined by “and”; a condition that tells them apart may be missing. Equal values may be shown once.
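Further: spheroids exposed to agents for 7 days.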

Regarding `C=CC(=O)N1CCN(c2nc(OCC3CCCN3C)nc3c2CCN(c2cccc4cccc(C)c24)C3)CC1CC#N` (stereo not drawn), the viability, T/C (as a rule, the result in the treated group divided by that in the control group, in per cent) is 70.1% [middle of 17 runs] (compound 0.0316 µM), 60.4% [middle of 17 runs] (compound 0.1 µM) and 57.9% [middle of 17 runs] (compound 1 µM). Besides, the IC50 – broadly, the concentration that inhibits the measured activity by half – runs as follows: (compound alone, run of 08/26/2021) 1.07 µM [middle of 5 runs]; (compound alone, run of 09/02/2021) 1.12 µM [middle of 6 runs].
As for `CC(=O)Nc1cccc(-n2c(=O)n(C3CC3)c(=O)c3c(Nc4ccc(I)cc4F)n(C)c(=O)c(C)c32)c1`, the viability, T/C is 98.3% [middle of 5 runs] (compound 0.0001 µM); 90.7% [middle of 5 runs] (compound 0.000316 µM); 76.2% [middle of 5 runs] (compound 0.001 µM); 57.5% [middle of 5 runs] (compound 0.00316 µM); 44.7% [middle of 5 runs] (compound 0.01 µM); 31.2% [middle of 5 runs] (compound 0.0316 µM). Under “curve of compound”, the IC50 is 5.93 nM [middle of 5 runs].
Take `CC(=O)OC12COC1CC(O)C1(C)C(=O)C(O)C3=C(C)C(OC(=O)C(O)C(NC(=O)OC(C)(C)C)c4ccccc4)CC(O)(C(OC(=O)c4ccccc4)C21)C3(C)C` (stereo not drawn): the viability, T/C runs as follows: (compound 0.01 µM) 35.9% [middle of 5 runs]; (compound 0.0316 µM) 35.4% [middle of 5 runs]; (compound 0.1 µM) 32.5% [middle of 5 runs]; (compound 0.316 µM) 36.5% [middle of 5 runs]; (compound 1 µM) 34% [middle of 5 runs]; (compound 3.16 µM) 34.3% [middle of 5 runs]. Further, the IC50 (curve of compound) was under 10 nM.
Consider `CC(C)n1nc(-c2ccc3oc(N)nc3c2)c2c(N)ncnc21`, for which the viability, T/C (compound 0.000316 µM) is 91% [middle of 5 runs]; the viability, T/C (compound 0.001 µM) is 81.3% [middle of 5 runs]; the viability, T/C (compound 0.00316 µM) is 54.4% [middle of 5 runs]; the viability, T/C (compound 0.01 µM) is 33.1% [middle of 5 runs]; the viability, T/C (compound 0.0316 µM) was 24.4% [middle of 5 runs]; the viability, T/C (compound 0.1 µM) was 21.4% [middle of 5 runs]. Further, the IC50 (curve of compound) was 4 nM [middle of 5 runs].
Consider `CC1COCCN1c1cc(-c2ccnn2C)c2ccnc(-c3ccn[nH]3)c2n1` (stereo not drawn), for which the viability, T/C runs as follows: (compound 0.01 µM) 77.9% [middle of 5 runs]; (compound 0.0316 µM) 39.8% [middle of 5 runs]; (compound 0.1 µM) 25.1% [middle of 5 runs]; (compound 0.316 µM) 21.9% [middle of 5 runs]; (compound 1 µM) 20.6% [middle of 5 runs]; (compound 3.16 µM) 18.9% [middle of 5 runs]. Also, where the note is “curve of compound”, the IC50 is 23.8 nM [middle of 5 runs].
Turning to `CCN1CCN(Cc2ccc(Nc3ncc(F)c(-c4cc(F)c5nc(C)n(C(C)C)c5c4)n3)nc2)CC1`, the viability, T/C was 93.4% [middle of 5 runs] (compound 0.00316 µM); 76.6% [middle of 5 runs] (compound 0.0316 µM); 61% [middle of 5 runs] (compound 0.1 µM); 62.1% [middle of 5 runs] (compound 0.316 µM); 62.6% [middle of 5 runs] (compound 1 µM). Further, the IC50 (curve of compound) was over 1000 nM.
`CN(C)C/C=C/C(=O)Nc1cc2c(Nc3ccc(F)c(Cl)c3)ncnc2cc1O[C@H]1CCOC1`: the viability, T/C runs as follows: (compound 0.000316 µM) 99% [middle of 5 runs]; (compound 0.001 µM) 97.1% [middle of 5 runs]; (compound 0.00316 µM) 89.2% [middle of 5 runs]; (compound 0.01 µM) 81% [middle of 5 runs]; (compound 0.0316 µM) 74.5% [middle of 5 runs]; (compound 0.1 µM) 73.5% [middle of 5 runs]. In addition, under “curve of compound”, the IC50 is over 100 nM.
In the case of `Cn1ncnc1[C@H]1c2n[nH]c(=O)c3cc(F)cc(c23)N[C@@H]1c1ccc(F)cc1`, the viability, T/C is 107% [middle of 4 runs] (compound 0.000316 µM); 104% [middle of 4 runs] (compound 0.001 µM); 109% (2×) and 98.1% and 107% (compound 0.00316 µM); 101% [middle of 4 runs] (compound 0.01 µM); 101% [middle of 4 runs] (compound 0.0316 µM); 89.2% [middle of 4 runs] (compound 0.1 µM). Besides, the IC50 (curve of compound) is over 100 nM.

(Values after PubChem BioAssay AID1963869 (Molecular Pharmacology Branch, DTP, NCI, 2024).)
